{"source": "paper PMC5699961", "about": "(Clinical pharmacokinetics, 2018)", "key": {"[1]": {"tested_on": "healthy subjects", "test": "Exposure-safety analysis", "format": "in vivo, human"}, "[2]": {"tested_on": "patients with solid tumors", "details": "cited from earlier work"}, "[3]": {"tested_on": "swine subjected to hemorrhage and polytrauma", "details": "intravenous VPA, absence of isotonic fluid resuscitation; cited from earlier work"}, "[4]": {"tested_on": "blood brain barrier", "details": "swine subjected to TBI and hemorrhagic shock; cited from earlier work"}, "[5]": {"details": "140 mg/kg dose, oral dosing; cited from earlier work"}, "[6]": {"test": "Single-dose plasma pharmacokinetics of intravenous VPA", "details": "for concentration at 24 h / AUC / AUC(0-inf) / Cmax / half-life: human, plasma; for concentration at 24 h: intravenous; for AUC / AUC(0-inf) / Cmax / half-life: iv"}, "[7]": {"details": "2-Compartment population model (final model), mean (SD)"}, "[8]": {"details": "3-Compartment population model, mean (SD)"}}, "note": "Where two headings read alike, the source gives them in different places.", "data": [{"smiles": "CCCC(CCC)C(=O)O", "note": "[VPA, valproic acid]", "values": [{"measurement": "Dose breakpoint for occurrence of adverse events", "setting": "[1]; Chills", "result": "> 6597", "unit": "mg"}, {"measurement": "Dose breakpoint for occurrence of adverse events", "setting": "[1]; Hearing adverse events", "result": "> 3222", "unit": "mg"}, {"measurement": "Maximum tolerated dose (MTD)", "setting": "[2]; cancer patients, intravenous, daily for five days", "result": 60, "unit": "mg/kg/day"}, {"measurement": "Previously established maximum tolerated single intravenous dose", "setting": "[2]; ref 21", "result": 60, "unit": "mg/kg"}, {"measurement": "Previously established maximum intravenous dose", "setting": "[2]; ref 22", "result": 75, "unit": "mg"}, {"measurement": "Previously established maximum tolerated single intravenous dose", "setting": "[2]; ref 22", "result": 75, "unit": "mg/kg"}, {"measurement": "Decrease in mortality", "setting": "[3]", "result": 50, "unit": "%"}, {"measurement": "Expression of tight-junction and basement membrane associated proteins (zona occludin-1, laminin, claudin-5)", "setting": "[4]", "result": "increased expression"}, {"measurement": "Peak plasma concentrations", "setting": "[5]", "result": "300 to 400", "unit": "µg/mL"}, {"measurement": "Q1, intercompartmental clearance between central and first peripheral compartment", "setting": "[6]; [7]", "result": "0.64 (0.32) L/h"}, {"measurement": "Vc, volume of distribution of the central compartment", "setting": "[6]; [7]", "result": "11.1 (2.62) L"}, {"measurement": "Vp1, volume of distribution of the first peripheral compartment", "setting": "[6]; [7]", "result": "7.70 (3.28) L"}, {"measurement": "Q1, intercompartmental clearance between central and first peripheral compartment", "setting": "[6]; [8]", "result": "0.62 (0.29) L/h"}, {"measurement": "Q2, intercompartmental clearance between central and second peripheral compartment", "setting": "[6]; [8]", "result": "3.48(1.47) L/h"}, {"measurement": "Vp1, volume of distribution of the first peripheral compartment", "setting": "[6]; [8]", "result": "7.63 (3.29) L"}, {"measurement": "Vp2, volume of distribution of the second peripheral compartment", "setting": "[6]; [8]", "result": "0.32(0.06) L"}, {"measurement": "concentration at 24 h", "setting": "[6]; 15 mg/kg", "result": 22.6, "unit": "µg/mL"}, {"measurement": "concentration at 24 h", "setting": "[6]; 30 mg/kg", "result": 39.5, "unit": "µg/mL"}, {"measurement": "concentration at 24 h", "setting": "[6]; 60 mg/kg", "result": 39.8, "unit": "µg/mL"}, {"measurement": "concentration at 24 h", "setting": "[6]; 90 mg/kg", "result": 56.9, "unit": "µg/mL"}, {"measurement": "concentration at 24 h", "setting": "[6]; 120 mg/kg", "result": 49.7, "unit": "µg/mL"}, {"measurement": "concentration at 24 h", "setting": "[6]; 130 mg/kg", "result": 97.2, "unit": "µg/mL"}, {"measurement": "concentration at 24 h", "setting": "[6]; 140 mg/kg", "result": 140, "unit": "µg/mL"}, {"measurement": "concentration at 24 h", "setting": "[6]; 150 mg/kg", "result": 81.4, "unit": "µg/mL"}, {"measurement": "AUC", "setting": "[6]; 15 mg/kg", "result": 1180, "unit": "µg·h/mL"}, {"measurement": "AUC(0-inf)", "setting": "[6]; 15 mg/kg", "result": 1710, "unit": "µg·h/mL"}, {"measurement": "Cmax", "setting": "[6]; 15 mg/kg", "result": 112, "unit": "µg/mL"}, {"measurement": "half-life", "setting": "[6]; 15 mg/kg", "result": 12.1, "unit": "h"}, {"measurement": "AUC", "setting": "[6]; 30 mg/kg", "result": 2200, "unit": "µg·h/mL"}, {"measurement": "AUC(0-inf)", "setting": "[6]; 30 mg/kg", "result": 3390, "unit": "µg·h/mL"}, {"measurement": "Cmax", "setting": "[6]; 30 mg/kg", "result": 235, "unit": "µg/mL"}, {"measurement": "half-life", "setting": "[6]; 30 mg/kg", "result": 12.1, "unit": "h"}, {"measurement": "AUC", "setting": "[6]; 60 mg/kg", "result": 2240, "unit": "µg·h/mL"}, {"measurement": "AUC(0-inf)", "setting": "[6]; 60 mg/kg", "result": 3040, "unit": "µg·h/mL"}, {"measurement": "Cmax", "setting": "[6]; 60 mg/kg", "result": 248, "unit": "µg/mL"}, {"measurement": "half-life", "setting": "[6]; 60 mg/kg", "result": 11.3, "unit": "h"}, {"measurement": "AUC", "setting": "[6]; 90 mg/kg", "result": 4630, "unit": "µg·h/mL"}, {"measurement": "AUC(0-inf)", "setting": "[6]; 90 mg/kg", "result": 5810, "unit": "µg·h/mL"}, {"measurement": "Cmax", "setting": "[6]; 90 mg/kg", "result": 541, "unit": "µg/mL"}, {"measurement": "half-life", "setting": "[6]; 90 mg/kg", "result": 8.9, "unit": "h"}, {"measurement": "AUC", "setting": "[6]; 120 mg/kg", "result": 3840, "unit": "µg·h/mL"}, {"measurement": "AUC(0-inf)", "setting": "[6]; 120 mg/kg", "result": 4980, "unit": "µg·h/mL"}, {"measurement": "Cmax", "setting": "[6]; 120 mg/kg", "result": 537, "unit": "µg/mL"}, {"measurement": "half-life", "setting": "[6]; 120 mg/kg", "result": 9, "unit": "h"}, {"measurement": "AUC", "setting": "[6]; 130 mg/kg", "result": 7740, "unit": "µg·h/mL"}, {"measurement": "AUC(0-inf)", "setting": "[6]; 130 mg/kg", "result": 11300, "unit": "µg·h/mL"}, {"measurement": "Cmax", "setting": "[6]; 130 mg/kg", "result": 855, "unit": "µg/mL"}, {"measurement": "half-life", "setting": "[6]; 130 mg/kg", "result": 8.8, "unit": "h"}, {"measurement": "AUC", "setting": "[6]; 140 mg/kg", "result": 9870, "unit": "µg·h/mL"}, {"measurement": "AUC(0-inf)", "setting": "[6]; 140 mg/kg", "result": 13500, "unit": "µg·h/mL"}, {"measurement": "Cmax", "setting": "[6]; 140 mg/kg", "result": 1270, "unit": "µg/mL"}, {"measurement": "half-life", "setting": "[6]; 140 mg/kg", "result": 9.7, "unit": "h"}, {"measurement": "AUC", "setting": "[6]; 150 mg/kg", "result": 6910, "unit": "µg·h/mL"}, {"measurement": "AUC(0-inf)", "setting": "[6]; 150 mg/kg", "result": 8520, "unit": "µg·h/mL"}, {"measurement": "Cmax", "setting": "[6]; 150 mg/kg", "result": 694, "unit": "µg/mL"}, {"measurement": "half-life", "setting": "[6]; 150 mg/kg", "result": 7.9, "unit": "h"}]}]}
